Molecules are shown by their SMILES.

The species entered for one assay is Mus musculus. Description: Hydroxyl radical scavenging activity by chemiluminescence technique in mouse thymus cells. It counts as functional.
Settings: not given
The compound `O=C([O-])CCNC12c3c4c5c6c7c8c(c9c%10c1c1c3c3c%11c4c4c5c5c7c7c%12c8c8c9c9c%10c%10c1c1c3c3c%11c%11c4c4c5c7c5c7c%12c8c8c9c9c%10c1c1c3c3c%11c4c5c4c7c8c9c1c34)C62.[Na+]` (stereo unspecified) registered an IC50 of 147.2 uM l-1.
On the same count and under the same terms, under `O=C(O)c1ccccc1` [BENZOIC ACID] stands 16600 uM l-1; under `OC[C@@H](O)[C@@H](O)[C@H](O)[C@H](O)CO` [MANNITOL], 13800 uM l-1; under `NC(N)=S` [THIOUREA], 1200 uM l-1.

Staying with this assay, now noted: Mus musculus; read-out: IC50.
As for `CN(CCC(=O)O)C12C3=c4c5c6c7c8c9c%10c%11c%12c%13c%14c%15c%16c%17c%18c%19c%20c(c4c4c5c8c(c%139)c(c%14%18)c%194)C4(NCCC(=O)O)C5=c8c9c(c-%16c%13c%14c%16c(c-%11c%11c%18c(c%19c1c(c8c(c9%14)c%19c%18%16)C34)=C(C62)C7(NCCC(=O)O)C%11%10)C%13C%12%15NCCC(=O)O)C%17C5%20NCCC(=O)O` (stereo unspecified), the IC50 worked out at 76.3 µM.
For `CN(CCC(=O)O)C12C3=C4c5c6c7c8c9c%10c%11c%12c%13c%14c%15c%16c%17c%18c(c5c8c(c%15%18)c%139)C4(NCCC(=O)O)C4C=%17C5(NCCC(=O)O)C(=C8c9c1c1c%13c%15c%17c%18c%19c%20c%21c(c8c%19c9%15)C5C=%16C%21(NCCC(=O)O)C%14C%12(NCCC(=O)O)C%20C%18(NCCC(=O)O)C%11C5(NCCC(=O)O)C%17C%13=C(C6(NCCC(=O)O)C31)C7(NCCC(=O)O)C%105)C42` (stereo unspecified), the IC50 was 96.2 µM.

(Values after ChEMBL document CHEMBL1137956, “Different hydroxyl radical scavenging activity of water-soluble beta-alanine C60 adducts” (Bioorg Med Chem Lett, 2004).)
